Laboratory results as given in article PMC8776995 (Frontiers in Chemistry, 2022).
Where “and” joins values, the source holds several entries; their conditions need not be identical. Equal values may be shown once. Values belong to the compound of their own block, whether it stands above or below them.

How the values were obtained:
[1] = Body mass of PC-9 tumor-bearing NSG mice after treatment; conditions: for Change in body weight: individual animals
Method: PC-9 xenografts were established by subcutaneous transplantation of cancer cells into the flanks of NSG mice (male, 4–6-week old). […] Tumor volumes were measured using calipers and calculated with the formula: V = length × width^2/2. The mouse body mass was recorded as well. 19 days after inoculation, the mice were sacrificed and the tumors were harvested and weighed.

[2] = tested on: PC-9 cells; assay: Annexin V/PI flow cytometry for cell apoptosis, PC-9; assay type: cell-based, human; set-up: key to Apoptosis (sum of Q2 and Q3) / Apoptosis, Average: % apoptotic cells (Annexin V/PI flow cytometry); conditions: for cell apoptosis (flow cytometry): PC-9, 4, 8 and 12 μM, 48 h; for Apoptosis, Average / Lymphocytes/Q2: FITC-A+ , PI-A+ Freq. of Parent / Lymphocytes/Q3: FITC-A+ , PI-A- Freq. of Parent / Apoptosis (sum of Q2 and Q3): PC-9, 48h; for Apoptosis, Average: average of three repeats; for Lymphocytes/Q2: FITC-A+ , PI-A+ Freq. of Parent / Lymphocytes/Q3: FITC-A+ , PI-A- Freq. of Parent: single runs; for Apoptosis (sum of Q2 and Q3): single repeats (Repeat 1-3)
Method: To establish whether the antiproliferative efficacy is associated with apoptosis, PC-9 and H460 cells were treated with compound e4 or e12 of various concentrations (4, 8 and 12 μM) for 48 h, and then assessed with flow cytometry.
Cell-apoptosis analysis was carried out by flow cytometry using the Annexin V/PI apoptosis kit according to the manufacturer’s manual. Briefly, PC-9 or H460 (3 × 10^4–5 × 10^4/well) cells were seeded in 12-well plates for 24 h, and then treated with 0.1% DMSO (as control) or various concentrations of compound e4 or e12 for 48 h, respectively. Cells were harvested, washed with PBS, and then incubated with 100ul of 1X Annexin V binding buffer containing 1 μl PI and 1 μl FITC Annexin V for 15 min at RT in the dark. 200 µl of 1X binding buffer were added to each tube for flow cytometry analysis (BD LSRFortessa™ Flow Cytometer). The percentages of apoptotic cells were analyzed using FlowJo soft.

[3] = tested on: PC-9 cells; assay: Hoechst 33342 staining for cell apoptosis; assay type: cell-based, human; conditions: PC-9, various concentrations, 48 h, vs 0.1% DMSO
Method: To further verify the impact of compounds e4 and e12 on apoptosis of NSCLC cells, PC-9 cells were treated with either compound e4 or e12 at various concentrations for 48 h and then stained with dye Hoechst 33342.
PC-9 cells were seeded in 96-well plates, then treated with 0.1% DMSO (as control) or various concentrations of compound e4 or e12 for 48 h. Culture medium from the cells was removed and replaced with medium containing dye Hoechst 33342. Cells were incubated at 37°C for 5–15 min, washed with PBS twice, and then observed and imaged under the Nikon Ti-U microscope.

[4] = tested on: PC-9 xenograft; assay: In vivo antitumor activity, PC-9 xenograft in NSG mice; set-up: species or system mouse
Method: The mouse body mass was recorded as well.

[5] = tested on: PC-9 cells; assay: CCK-8 antiproliferation assay, PC-9; conditions: for IC50: PC-9, 48 h, read-out: IC50 (μM) PC-9; for inhibition at 4 µM: PC-9, read-out: Inhibitory efficacy, PC-9, 4uM, single repeats (Repeat 1-3), given as fraction; for inhibition at 8 µM: PC-9, read-out: Inhibitory efficacy, PC-9, 8uM, single repeats (Repeat 1-3), given as fraction; for inhibition at 16 µM: PC-9, read-out: Inhibitory efficacy, PC-9, 16uM, single repeats (Repeat 1-3), given as fraction; for Inhibitory efficacy: single repeats (Repeat 1-3), given as fraction
[6] = tested on: EGFR phosphorylation (Tyr1068) in H460 cells; assay: Western blot, p-EGFR/EGFR in H460; conditions: for p-EGFR/EGFR: band density ratio; for p-EGFR/EGFR relative to DMSO: ratio normalised to DMSO; for phosphorylation of EGFR (western blot): H460, especially at 10 μM
Method: We also performed western blot analysis to evaluate the impact of e4 and e12 on EGFR signaling in PC-9 and H460 cells.
H460 cells were seeded in six-well plates with serum-free medium overnight, and then treated complete medium containing 0.1% DMSO, various concentrations (0.1, 1 and 10 μM) of either compound e4 or e12 for 2 h, respectively. […] Then the H460 cells were treated with complete medium containing EGF (10 ng/ml) for 5 min. Then the cells were harvested and washed with PBS, centrifuged, resuspended in 100–200 μl of RIPA lysis buffer containing Protease and Phosphatase Inhibitor Cocktail (1X), and then centrifuged for 5 min at 12,000 rpm at 4°C. The supernatant was used for protein analysis. […] Then the membrane was washed 5 min (X3) and incubated at 1:3,000 dilution of anti-rabbit secondary antibodies or 1:1,000 dilution of anti-mouse secondary antibodies for 1 h at RT. After washing with TBST 5 min (X3), protein bands were developed by chemiluminescence. The protein levels were quantified by the gray values of the bands in the resulting images by ImageJ, and the control group was used as the standard. […] The PC-9 cells were harvested and analyzed as above.

IC50 ([5]; Homo sapiens): 4.38 ± 0.12 µM
SMILES: COCCOc1cc2ncnc(Nc3cccc(-c4cn(Cc5cc(Br)cc(Br)c5)nn4)c3)c2cc1OCCOC [e4, [6,7-Bis-(2-methoxy-ethoxy)-quinazolin-4-yl]-{3-[1-(3,5-dibromo-benzyl)-1H-[1,2,3]triazol-4-yl]-phenyl}-amine]
Body weigh ([1]; Day13, individual animals): 27 g and 25.6 g and 24.1 g and 27.3 g and 28.8 g
Body weigh ([1]; Day15, individual animals): 25.7 g and 26.2 g and 25.9 g and 27.3 g and 29 g
Change in body weight ([1]; Day15 vs previous weighing): -4.815% and 2.344% and 7.469% and 0% and 0.6944%
Body weigh ([1]; Day17, individual animals): 26 g and 23.9 g and 26.1 g and 27.3 g and 29.1 g
Change in body weight ([1]; Day17 vs previous weighing): 1.167% and -8.779% and 0.7722% and 0% and 0.3448%
Body weigh ([1]; Day19, individual animals): 25.9 g and 26 g and 26.2 g and 27.1 g and 29.1 g
Change in body weight ([1]; Day19 vs previous weighing): -0.3846% and 8.787% and 0.3831% and -0.7326% and 0%
cell apoptosis (flow cytometry) [2]: significant cell apoptosis
Apoptosis, Average ([2]; 4uM): 10.24
Lymphocytes/Q2: FITC-A+ , PI-A+ Freq. of Parent ([2]; 4uM): 4.32% and 13.0% and 11.9%
Lymphocytes/Q3: FITC-A+ , PI-A- Freq. of Parent ([2]; 4uM): 0.25% and 0.69% and 0.56%
Apoptosis, Average ([2]; 8uM): 14.45
Apoptosis (sum of Q2 and Q3) ([2]; 8uM): 10.39 and 18.02 and 14.93
Lymphocytes/Q2: FITC-A+ , PI-A+ Freq. of Parent ([2]; 8uM): 9.22% and 16.0% and 13.2%
Lymphocytes/Q3: FITC-A+ , PI-A- Freq. of Parent ([2]; 8uM): 1.17% and 2.02% and 1.73%
Apoptosis, Average ([2]; 12uM): 35.74
Apoptosis (sum of Q2 and Q3) ([2]; 12uM): 33.11 and 39.69 and 34.42
Lymphocytes/Q2: FITC-A+ , PI-A+ Freq. of Parent ([2]; 12uM): 28.20% and 34.7% and 29.1%
Lymphocytes/Q3: FITC-A+ , PI-A- Freq. of Parent ([2]; 12uM): 4.91% and 4.99% and 5.32%
apoptotic morphology, Hoechst 33342 staining [3]: exhibited features typical of apoptosis
tumor volume mean ([4]; Day13, group mean): 63.4029 mm3
tumor length ([4]; Day13, individual animals): 5.08 mm and 6.5 mm and 4.8 mm and 6.3 mm and 6.04 mm and 5.8 mm and 7.4 mm and 6.1 mm
tumor volume ([4]; Day13, individual animals): 59.9938 mm3 and 60.0925 mm3 and 44.376 mm3 and 55.566 mm3 and 68.426 mm3 and 38.5875 mm3 and 71.3446 mm3 and 78.292 mm3 and 93.9476 mm3
tumor width ([4]; Day13, individual animals): 4.86 mm and 4.3 mm and 4.2 mm and 4.76 mm and 3.5 mm and 4.96 mm and 4.6 mm and 5.55 mm
tumor volume mean ([4]; Day15, group mean): 44.2866 mm3
tumor length ([4]; Day15, individual animals): 3.97 mm and 5.56 mm and 5.73 mm and 4.91 mm and 4.11 mm and 5.48 mm and 4.95 mm and 6.93 mm and 5.72 mm
tumor volume ([4]; Day15, individual animals): 23.9012 mm3 and 57.8062 mm3 and 55.2146 mm3 and 35.078 mm3 and 33.0446 mm3 and 32.9921 mm3 and 21.979 mm3 and 91.1881 mm3 and 47.3756 mm3
tumor width ([4]; Day15, individual animals): 3.47 mm and 4.56 mm and 4.39 mm and 3.78 mm and 4.01 mm and 2.98 mm and 5.13 mm and 4.07 mm
tumor volume mean ([4]; Day17, group mean): 35.7355 mm3
tumor length ([4]; Day17, individual animals): 3.7 mm and 7.6 mm and 4.76 mm and 5.8 mm and 4.94 mm and 4.9 mm and 5.1 mm and 4.6 mm
tumor volume ([4]; Day17, individual animals): 17.7785 mm3 and 54.872 mm3 and 38.4618 mm3 and 25.4086 mm3 and 28.0515 mm3 and 47.432 mm3 and 38.7855 mm3 and 30.2575 mm3 and 40.572 mm3
tumor width ([4]; Day17, individual animals): 3.1 mm and 3.8 mm and 4.02 mm and 2.96 mm and 3.37 mm and 4.4 mm and 3.9 mm and 3.5 mm and 4.2 mm
tumor volume mean ([4]; Day19, group mean): 22.669 mm3
Tumor weight ([4]; Day19, individual animals): 0.07 g and 0.02 g and 0.04 g and 0.03 g
tumor length ([4]; Day19, individual animals): 4.55 mm and 5.74 mm and 3.59 mm and 2.83 mm and 2.52 mm and 3 mm and 4.51 mm and 5.54 mm and 4.24 mm
tumor volume ([4]; Day19, individual animals): 7.871 mm3 and 60.7292 mm3 and 20.5068 mm3 and 2.813 mm3 and 5.663 mm3 and 9.6774 mm3 and 39.0241 mm3 and 23.1353 mm3 and 34.6018 mm3
tumor width ([4]; Day19, individual animals): 1.86 mm and 4.6 mm and 3.38 mm and 1.41 mm and 2.12 mm and 2.54 mm and 4.16 mm and 2.89 mm and 4.04 mm
inhibition at 1 µM ([5]; Homo sapiens, PC-9, read-out: Inhibitory efficacy, PC-9, 1uM, single repeats (Repeat 1-3), given as fraction): 4.24%
inhibition at 2 µM ([5]; Homo sapiens, PC-9, read-out: Inhibitory efficacy, PC-9, 2uM, single repeats (Repeat 1-3), given as fraction): 12.8%
inhibition at 4 µM ([5]; Homo sapiens): 40%
inhibition at 8 µM ([5]; Homo sapiens): 88.1%
inhibition at 16 µM ([5]; Homo sapiens): 85.7%
Inhibitory efficacy ([5]; PC-9, 1uM, 1 µM): 0.05688 and 0.04243
Inhibitory efficacy ([5]; PC-9, 2uM, 2 µM): 0.1851 and 0.2067
Inhibitory efficacy ([5]; PC-9, 4uM, 4 µM): 0.4288 and 0.3873
Inhibitory efficacy ([5]; PC-9, 8uM, 8 µM): 0.8667 and 0.8549
Inhibitory efficacy ([5]; PC-9, 16uM, 16 µM): 0.8604 and 0.8477
p-EGFR/EGFR ([6]; H460, 0.1 uM): 0.8093
p-EGFR/EGFR relative to DMSO ([6]; H460, 0.1 uM): 0.9725
p-EGFR/EGFR ([6]; H460, 1 uM): 0.8837
p-EGFR/EGFR relative to DMSO ([6]; H460, 1 uM): 1.062
p-EGFR/EGFR ([6]; H460, 10 uM): 0.3865
p-EGFR/EGFR relative to DMSO ([6]; H460, 10 uM): 0.4645
phosphorylation of EGFR (western blot) [6]: suppressed

melting point: 95 to 98 °C
IC50 ([5]; Homo sapiens): 6.36 ± 0.11 µM
SMILES: COCCOc1cc2ncnc(Nc3cccc(-c4cn(-c5ccc(C)cc5)nn4)c3)c2cc1OCCOC [e12, [6,7-Bis-(2-methoxy-ethoxy)-quinazolin-4-yl]-[3-(1-p-tolyl-1H-[1,2,3]triazol-4-yl)-phenyl]-amine]
cell apoptosis (flow cytometry) [2]: significant cell apoptosis
Apoptosis, Average ([2]; 4uM): 13.94
Apoptosis (sum of Q2 and Q3) ([2]; 4uM): 15.01 and 16.36 and 10.45
Lymphocytes/Q2: FITC-A+ , PI-A+ Freq. of Parent ([2]; 4uM): 14.50% and 15.4% and 9.81%
Lymphocytes/Q3: FITC-A+ , PI-A- Freq. of Parent ([2]; 4uM): 0.51% and 0.96% and 0.64%
Apoptosis, Average ([2]; 8uM): 12.92
Apoptosis (sum of Q2 and Q3) ([2]; 8uM): 13.98 and 12.64 and 12.13
Lymphocytes/Q2: FITC-A+ , PI-A+ Freq. of Parent ([2]; 8uM): 12.60% and 10.6% and 10.7%
Lymphocytes/Q3: FITC-A+ , PI-A- Freq. of Parent ([2]; 8uM): 1.38% and 2.04% and 1.43%
Apoptosis, Average ([2]; 12uM): 29.21
Apoptosis (sum of Q2 and Q3) ([2]; 12uM): 24.77 and 29.39 and 33.48
Lymphocytes/Q2: FITC-A+ , PI-A+ Freq. of Parent ([2]; 12uM): 20.50% and 25.9% and 29.5%
Lymphocytes/Q3: FITC-A+ , PI-A- Freq. of Parent ([2]; 12uM): 4.27% and 3.49% and 3.98%
apoptotic morphology, Hoechst 33342 staining [3]: exhibited features typical of apoptosis
inhibition at 4 µM ([5]; Homo sapiens): 21.3%
inhibition at 8 µM ([5]; Homo sapiens): 70.1%
inhibition at 16 µM ([5]; Homo sapiens): 88.6%
Inhibitory efficacy ([5]; PC-9, 4uM, 4 µM): 0.1587 and 0.2347
Inhibitory efficacy ([5]; PC-9, 8uM, 8 µM): 0.6968 and 0.6771
Inhibitory efficacy ([5]; PC-9, 16uM, 16 µM): 0.8795 and 0.8884
p-EGFR/EGFR ([6]; H460, 0.1 uM): 0.7896
p-EGFR/EGFR relative to DMSO ([6]; H460, 0.1 uM): 0.9489
p-EGFR/EGFR ([6]; H460, 1 uM): 0.75
p-EGFR/EGFR relative to DMSO ([6]; H460, 1 uM): 0.9013
p-EGFR/EGFR ([6]; H460, 10 uM): 0.166
p-EGFR/EGFR relative to DMSO ([6]; H460, 10 uM): 0.1995
phosphorylation of EGFR (western blot) [6]: suppressed
